Reference: patent US6420330B1, “Use of quaternary carboxylic acid alkanolamine ester salts as microbicide agents” (Cognis Deutschland GmbH, priority 1997, dated 2002)

How the values were obtained:
Test in all cases: DGHM suspension test, other bacteria and fungi
Format in all cases: cell-based
[1] = test system: Salmonella enteritidis
Description: (§1) The effectiveness of the compound to be tested was determined by the suspension test in accordance with the guidelines of the Deutsche Gesellschaft for Hygiene and Mikrobiologie (DGHM). Test solutions containing quatemary carboxylic acid alkanolamine ester salts in the quantities shown in the Tables of 50, 100, 200, 400 and 800 mg/l were prepared using water with a hardness of 17° dH and optionally isopropanol. At room temperatures, quantities of 0.1 ml test germ suspension were pipetted into test tubes containing 10 ml of the test solutions described above and mixed. After various contact times of 5, 15, 30 and 60 minutes, 1 ml of material was taken from the test tubes by pipette and transferred to 9 ml inactivator solution (inactivators: 3.0% Tween, 0.3% lecithin, 0.1% histidine). After in activation for at least 5 and at most 30 minutes, the living germ count was determined by plating out onto casein peptone-soybean flour peptone (CaSo)-agar plates. Using a spiral plater, the inactivating mixture was directly plated out onto CaSo-agar. The samples were incubated for 24 to 72 hours at 37° C. and macroscopically evaluated for growth. The destruction time or the residual germ count was determined in this way. The germ count of an unchallenged water control is related to the germ count of the inactivated test solution taking the dilution into account. The higher the value, the better the microbicidal effect. The symbol < means that the logarithmic reductuon factor is below the indicated value or, in the case of the symbol >, above the indicated value. The abbreviation CU stands for “concentration used”. Methyl triethanolammonium dioctanoic acid ester methosulfate was tested as in A) against the bacteria

[2] = test system: Trichophyton mentagrophytes
Description: as §1

[3] = test system: Enterococcus faecium
Description: as §1

[4] = test system: Microsporum gypseum
Description: as §1

[5] = test system: Escherichia coli
Description: as §1

For `CCCCCCCC(=O)OCC[N+](C)(CCO)CCOC(=O)CCCCCCC.COS(=O)(=O)[O-]` [Example 11, Methyl triethanolammonium dioctanoic acid ester methosulfate], the logarithmic reduction rate ([1]; 50 ppm, 5 Mins.) was under 1.8, the logarithmic reduction rate ([1]; 50 ppm, 15 Mins.) was 3.29 and the logarithmic reduction rate ([1]; 50 ppm, 60 Mins.) was 3.67. The logarithmic reduction rate ([1]; 100 ppm, 5 Mins.) was 3.96, the logarithmic reduction rate ([1]; 100 ppm, 15 Mins.) was 5.12 and the logarithmic reduction rate ([1]; 100 ppm, 60 Mins.) was over 5.76. It also gave a logarithmic reduction rate ([1]; 200 ppm, 5 Mins.) of 4.88, a logarithmic reduction rate ([1]; 200 ppm, 15 Mins.) of over 5.77 and a logarithmic reduction rate ([1]; 200 ppm, 60 Mins.) of over 5.76. For the same compound, the logarithmic reduction rate ([1]; 400 ppm, 5 Mins.) was over 5.8, the logarithmic reduction rate ([1]; 400 ppm, 15 Mins.) was over 5.72 and the logarithmic reduction rate ([1]; 400 ppm, 60 Mins.) was over 5.76. It also gave a logarithmic reduction rate ([2]; 50 ppm, 5 Mins.) of 0.34, a logarithmic reduction rate ([2]; 50 ppm, 15 Mins.) of 0.95 and a logarithmic reduction rate ([2]; 50 ppm, 60 Mins.) of 2.04. The logarithmic reduction rate ([2]; 100 ppm, 5 Mins.) was 0.38, the logarithmic reduction rate ([2]; 100 ppm, 15 Mins.) was 0.95 and the logarithmic reduction rate ([2]; 100 ppm, 60 Mins.) was 2.05. The logarithmic reduction rate ([2]; 200 ppm, 5 Mins.) was 0.28, the logarithmic reduction rate ([2]; 200 ppm, 15 Mins.) was 0.92 and the logarithmic reduction rate ([2]; 200 ppm, 60 Mins.) was 2.16. The logarithmic reduction rate ([2]; 400 ppm, 5 Mins.) was 0.35, the logarithmic reduction rate ([2]; 400 ppm, 15 Mins.) was 0.89 and the logarithmic reduction rate ([2]; 400 ppm, 60 Mins.) was 2.29. The “destruction of Trichophyton mentagrophytes” value ([2]; long contact time (60 minutes)) was “around 2 powers of ten”, the logarithmic reduction rate ([3]; 50 ppm, 5 Mins.) was over 6.3 and the logarithmic reduction rate ([3]; 50 ppm, 15 Mins.) was over 5.88. For the same compound, the logarithmic reduction rate ([3]; 50 ppm, 60 Mins.) was over 5.96, the logarithmic reduction rate ([3]; 100 ppm, 5 Mins.) was over 6.3 and the logarithmic reduction rate ([3]; 100 ppm, 15 Mins.) was over 5.88. For the same compound, the logarithmic reduction rate ([3]; 100 ppm, 60 Mins.) was over 5.96, the logarithmic reduction rate ([3]; 200 ppm, 5 Mins.) was over 6.3 and the logarithmic reduction rate ([3]; 200 ppm, 15 Mins.) was over 5.88. For the same compound, the logarithmic reduction rate ([3]; 200 ppm, 60 Mins.) was over 5.96, the logarithmic reduction rate ([3]; 400 ppm, 5 Mins.) was over 6.3 and the logarithmic reduction rate ([3]; 400 ppm, 15 Mins.) was over 5.88. The logarithmic reduction rate ([3]; 400 ppm, 60 Mins.) was over 5.96, the logarithmic reduction rate ([4]; 50 ppm, 5 Mins.) was over 3.52 and the logarithmic reduction rate ([4]; 50 ppm, 15 Mins.) was over 3.58. It also gave a logarithmic reduction rate ([4]; 50 ppm, 60 Mins.) of over 3.62, a logarithmic reduction rate ([4]; 100 ppm, 5 Mins.) of over 3.52 and a logarithmic reduction rate ([4]; 100 ppm, 15 Mins.) of over 3.58. For the same compound, the logarithmic reduction rate ([4]; 100 ppm, 60 Mins.) was over 3.62, the logarithmic reduction rate ([4]; 200 ppm, 5 Mins.) was over 3.52 and the logarithmic reduction rate ([4]; 200 ppm, 15 Mins.) was over 3.58. It also gave a logarithmic reduction rate ([4]; 200 ppm, 60 Mins.) of over 3.62, a logarithmic reduction rate ([4]; 400 ppm, 5 Mins.) of over 3.52 and a logarithmic reduction rate ([4]; 400 ppm, 15 Mins.) of over 3.58. For the same compound, the logarithmic reduction rate ([4]; 400 ppm, 60 Mins.) was over 3.62, the “killing of the fungus Microsporum gypseum” value ([4]; concentration of 50 mg/l, shortest contact time) was “almost completely killed off” and the logarithmic reduction rate ([5]; 50 ppm, 5 Mins.) was 4.12. For the same compound, the logarithmic reduction rate ([5]; 50 ppm, 15 Mins.) was over 5.62, the logarithmic reduction rate ([5]; 50 ppm, 60 Mins.) was over 5.76 and the logarithmic reduction rate ([5]; 100 ppm, 5 Mins.) was over 5.58. The logarithmic reduction rate ([5]; 100 ppm, 15 Mins.) was over 5.62, the logarithmic reduction rate ([5]; 100 ppm, 60 Mins.) was over 5.76 and the logarithmic reduction rate ([5]; 200 ppm, 5 Mins.) was over 5.58. For the same compound, the logarithmic reduction rate ([5]; 200 ppm, 15 Mins.) was over 5.62, the logarithmic reduction rate ([5]; 200 ppm, 60 Mins.) was over 5.76 and the logarithmic reduction rate ([5]; 400 ppm, 5 Mins.) was over 5.58. It also gave a logarithmic reduction rate ([5]; 400 ppm, 15 Mins.) of over 5.62 and a logarithmic reduction rate ([5]; 400 ppm, 60 Mins.) of over 5.76.
